Earlier results as cited in patent publication US20090318627A1, “SOLID PHASE SYNTHESIS OF ACRIDINIUM DERIVATIVES” (Siemens Healthcare Diagnostics Inc., priority 2006, published 2009).

Conditions: hydrolysis of ester linkage between acridinium ring and phenol

| Molecule | hydrolytic stability of the acridinium ester linkage, in words |
| --- | --- |
| 9-carboxyphenyl-N-methylacridinium bromide | quite unstable |
| Cc1cc(C(=O)ON2C(=O)CCC2=O)cc(C)c1OC(=O)c1c2ccccc2[n+](C)c2ccccc12 [DMAE-NHS, 2′,6′-dimethyl-4′-(N-succinimidyloxycarbonyl)phenyl-10-methylacridinium-9-carboxylate] | significantly more resistant to hydrolysis |
